Assay results from patent publication US9447446B2, “Lipid multilayer microarrays and their use for cell culture screening” (FLORIDA STATES UNIVERSITY RESEARCH FOUNDATION, priority 2011, dated 2016).

Experiments:
[1] = system: NIH 3T3 cells; type: cell-based; conditions: for cell death over drug pattern: lipid (DOTAP)-encapsulated drug pattern, FIG. 21
Method: NIH 3T3 cells (obtained from the American Type Culture Collection, CRL-1658™, and maintained according to the collections guidelines) for all experiments are seeded at 4×10^5 cells/mL and grown to 70% confluence in Dulbecco's Modified Eagle Medium supplemented with 10% Cosmic Calf Serum (Sigma Aldrich). Trypsin (0.25%) is used for cell detachment, and the medium is replaced with fresh medium 24 hours before the experiment. Cells are seeded onto the patterned glass coverslips by gently pipetting a drop of the cell suspension directly over each pattern to prevent the patterns from being washed away. The same method is used to seed other parts of the slide for use as control areas. The cells are incubated over the patterned areas for 48 hours.
Aliquots of valinomycin (20 mg/mL) and DOTAP (20 mg/mL), both dissolved in chloroform, are placed in an amber glass vial and serially diluted to produce valinomycin masses of 20, 10, 5, 2.5, 1.25 and 0.63 mg. Drying, liposome formation and cell culture are conducted as described above for the Rhodamine dose-response. Toxicity assays are performed after 24 and 48 hours.
Docetaxel (20 mg/mL) dissolved in DMSO is further serially diluted in Hank's buffered salt solution to produce seven solutions with docetaxel masses of 50, 25, 12.5, 6.25, 3.2, 1.6 and 0.8 mg respectively, each with a total volume of […]. The eighth is a solution of DMSO only (control) at the same volume as the 50 mg solution. These mixtures are added to […] of medium and added to the cells in the same manner as described above for the Rhodamine dose-response. Toxicity assays are performed after incubation for 48 hours.
The BacLight live/dead assay is purchased from Invitrogen. The cells are incubated with both SYTO 9 and propidium iodide for 20 min. The cells stained with both are counted as dead, and those stained with SYTO 9 only are counted as live.^34,35 All counting of live and dead cells is done by hand.
Valinomycin is tested first because of its quick action as a cytotoxic agent and immediate action upon incorporation into the cellular membrane. The drug acts as a potassium ionophore, facilitating loss of potassium and resulting in cell death. FIGS. 16, 17, 18 and 19 show a toxicity assay of cells that are cultured over a lipid multilayer microarray. […] In FIGS. 16, 17 and 18, arrows in 1612, 1614 and 1616 point to the same alignment mark. FIG. 16 is a brightfield image of DOTAP/valinomycin pattern before cell culture. […] FIG. 18 is a higher magnification of the square area 1702 of FIG. 17. Images are taken after 24 hours. Images in FIGS. 17 and 18 are the merged TRITC and FITC fluorescence channel images. FIG. 19 is a mosaic of images (TRITC filter set). Central square 1902 corresponds to FIG. 17, and the other squares are the areas immediately surrounding central square 1902. All live cells are stained green; nuclei of dead cells are stained red.
Taxotere® (docetaxel) is an anticancer drug and is a second-generation, semisynthetic analog of Taxol® (paclitaxel). Taxanes, which include paclitaxel and docetaxel, work by binding to microtubules and stabilizing them, thus preventing their disassembly and progression through mitosis, and therefore their functioning inside the cytoplasm. The cell may revert to the G1 phase or undergo apoptosis.^36 Cells are plated over patterns (such as that in FIG. 16) consisting of lipid only, lipid-encapsulated docetaxel and lipid-encapsulated valinomycin, all on the same glass coverslip and incubated for 48 hours. The results are shown in FIGS. 20, 21, 22, 23, 24, 25, 26, 27, 28 and 29.

[2] = system: NIH 3T3 cells; assay: live cell imaging of DOPE-rhodamine uptake from lipid pattern; type: cell-based; conditions: cells cultured over lipid pattern for 25 hours; decrease starts after 20 hours, complete by 25 hours
Method: DOTAP is mixed with 1 mol % DOPE-rhodamine, and 2 μL was deposited in the M-type inkwell for the DPN 2000.
Microscopy for all the imaging except the supplementary video is done with a Nikon Eclipse Ti microscope. The printed patterns and the Retiga-SRV fast 1394 camera are used. Patterns are imaged in brightfield before cell culture. Nikon fluorescence filter sets B-2E/C FITC and G-2E/C TRITC are used for the live/dead cell assay. Imaging is done at 800 m sec exposure time with the 10× (NA=0.3) objective and at 1 second for the 4× (NA=0.13) objective. Lamp intensity for all imaging is set at 4. Microscopy for the live cell lipid uptake for the supplementary video is done with a Nikon TE-2000-E inverted microscope equipped with a Nikon Plan Apo 40× (NA=0.95) DIC objective.
FIGS. 10, 11, 12, 13, 14 and 15 show the uptake of DOPE-rhodamine-labeled DOTAP by NIH 3T3 cells. […] Fluorescence intensity is used as the indicator of the amount of lipid taken up by the cells. A higher fluorescence in cells indicates higher uptake of lipids. Grid lines 1022 and 1024 in FIG. 10 and grid lines 1026 and 1028 in FIGS. 10 and 11 divide the images of FIGS. 10 and 11 into areas 1032 and 1034, respectively, analyzed and compared for fluorescence intensity before and after cell incubation on the patterns. […]

[3] = NIH 3T3 cells, 48 hours, live/dead assay

Question: Which “toxicity of lipid-only pattern versus control with medium only” value ([1]; DOTAP-only pattern, NIH 3T3 cells, 48 hours, p>0.05) does the source give for CCCCCCCC/C=C\CCCCCCCC(=O)OCC(C[N+](C)(C)C)OC(=O)CCCCCCC/C=C\CCCCCCCC.[Cl-] (stereo not shown) [DOTAP, 1,2-dioleoyl-3-trimethylammonium-propane (chloride salt)] here?
Answer: The value was “did not differ significantly”.

Question: Which “toxicity level from the surface (cells killed)” value ([1]; DOTAP/valinomycin pattern (4:1 lipid-to-drug), NIH 3T3 cells, 24 hours, live/dead assay) does the source give for CC(C)[C@@H]1NC(=O)[C@H](C)OC(=O)[C@@H](C(C)C)NC(=O)[C@@H](C(C)C)OC(=O)[C@H](C(C)C)NC(=O)[C@H](C)OC(=O)[C@@H](C(C)C)NC(=O)[C@@H](C(C)C)OC(=O)[C@H](C(C)C)NC(=O)[C@H](C)OC(=O)[C@@H](C(C)C)NC(=O)[C@@H](C(C)C)OC1=O [valinomycin] here?
Answer: Its value is “about 11%”.

Question: And the “corresponding concentration of liposomal drug delivered from solution” value ([1]; equivalent solution concentration for the toxicity of the DOTAP/valinomycin pattern, 24 hours)?
Answer: The value was “about 0.1 mg/mL”.

Question: And the “cell death over drug pattern” value [1, 3]?
Answer: The value was “about 25%”.

Question: Which “critical uptake time (window in which fluorescence of absorbed spots disappears)” value [2] does the source give for “1,2-dioleoyl-sn-glycerol-3-phosphoethanolamine-N-(lissamine rhodamine b sulfonyl) (ammonium salt) [DOPE-rhodamine]” here?
Answer: Its value is 5 h.

Question: What does the source list for CC(=O)O[C@@]12CO[C@@H]1C[C@H](O)[C@@]1(C)C(=O)[C@H](O)C3=C(C)[C@@H](OC(=O)[C@H](O)[C@@H](NC(=O)OC(C)(C)C)c4ccccc4)C[C@@](O)([C@@H](OC(=O)c4ccccc4)[C@H]21)C3(C)C [docetaxel]?
Answer: comparable concentration of docetaxel dissolved in DMSO delivered from solution ([1]; equivalent solution concentration for the toxicity of the docetaxel pattern, 48 hours): approximately 6.25 mg/mL; cell death over drug pattern [1, 3]: over 60%
